Assay [1] addresses Human immunodeficiency virus type 1 integrase (Human immunodeficiency virus 1) (UniProt Q7ZJM1). The experiment in a line: Inhibition of His-tagged HIV-1 integrase-mediated 3' processing and strand transfer reactions using 5'-ACAGGCCTAGCACGCGTCG-Biotin-3' annealed with 5'-CGACGCGTGGTAGGCCTGT-Biotin3'/5'-Cy5-ATGTGGAAAATCTCTAGCAGT-3' annealed with 5'-Cy5-TGAGCTCGAGATTTTCCACAT-3' as donar/acceptor DNA substrate preincubated for 1 hr followed by DNA and LEDGF/p75 addition measured after 90 mins by HTRF assay. In general terms: Time-resolved FRET reads energy transfer from a long-lived donor to a nearby acceptor.

For assay [2], the target named is Human immunodeficiency virus type 1 integrase (Human immunodeficiency virus 1, UniProt Q7ZJM1). The assay is described as follows: Binding affinity to recombinant HIV-1 integrase catalytic core domain expressed in Escherichia coli assessed as inhibition of interaction with […] by HTRF assay.
Human immunodeficiency virus type 1 integrase, sequence (Q7ZJM1 whole entry, the tested form may be a part): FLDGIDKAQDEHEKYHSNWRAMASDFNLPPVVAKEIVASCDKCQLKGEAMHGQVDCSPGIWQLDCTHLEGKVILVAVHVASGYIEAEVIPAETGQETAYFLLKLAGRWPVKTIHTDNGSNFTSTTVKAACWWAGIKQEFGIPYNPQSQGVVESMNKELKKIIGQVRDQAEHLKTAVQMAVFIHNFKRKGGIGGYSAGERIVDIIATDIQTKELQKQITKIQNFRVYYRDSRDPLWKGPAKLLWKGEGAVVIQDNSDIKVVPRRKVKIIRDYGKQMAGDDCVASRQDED

Human immunodeficiency virus type 1 integrase (Human immunodeficiency virus 1), sequence (Q7ZJM1 as listed by the source): as the sequence (Q7ZJM1 whole entry, the tested form may be a part) above

On to `CCC[C@H](C(=O)O)c1c(C)nc2ccc(Cl)cc2c1-c1ccccc1`, for which the inhibition entry in assay [1] is “Dose-dependent effect”.
For orientation: IC50 means the point on the concentration scale where inhibition reaches its midpoint. With `Cc1nc2ccccc2c(-c2cc(F)c3c(c2C)CCCO3)c1[C@H](OC(C)(C)C)C(=O)O`, in assay [2], the IC50 was 18 nM.
With `Cc1nc2ccc(Br)cc2c(-c2ccc(Cl)cc2)c1[C@H](OC(C)(C)C)C(=O)O`, in assay [2], the IC50 came to 60 nM.

Values taken from ChEMBL document CHEMBL3596174, “Investigation on the sucrose binding pocket of HIV-1 Integrase by molecular dynamics and synergy experiments” (Bioorg Med Chem Lett, 2015).
